In patent publication US20140235545A1, “The use of HCV immunogenic peptide or a derivative thereof in the prevention or treatment of arthritis” (priority 2011, published 2014):
No end group written: not given here.

Test system: adjuvant arthritis (Freund's complete adjuvant)
Test: Protective effect of peptide A on adjuvant arthritis in rats
Format: in vivo, SD rats
Details: for ankle joint swelling value: X±SD; for ankle joint swelling value / Lesion scoring ( X ± SD), joint lesion severity: n=10; for inhibition rate of ankle joint swelling: vs model group; for Lesion scoring ( X ± SD), joint lesion severity: 32nd day, left rear ankle joint histopathology, lower score = milder
Experimental: SPF-level SD rats, each weighting 180 g-220 g, with male and female each in half, provided by Experimental Animal Center of Chinese Academy of Military Medical.
Peptide A (which was prepared with the same procedure as in Embodiment 1). It was to be dissolved in physiological saline when used.
SD rats, with male and female each in half, were randomly divided into five groups with 10 rats in each group, respectively were model group (employing physiological saline and Freund's complete adjuvant); control group (employing the same volume of physiological saline as the model group); peptide A high, medium and low dose groups (employing Freund's complete adjuvant and peptide A, wherein each group was given different doses of peptide A, respectively were 174 μg/kg·d, 87 μg/kg·d and 43.5 μg/kg·d, peptide A was dissolved in physiological saline to form peptide A solution with desired concentration). Peptide A solution in each dose was administered by subcutaneous injection, 0.1 ml of peptide A solution per 100 g body weight of rats. The control group employed the same amount of physiological saline as the peptide A solution (0.1 ml of physiological saline per 100 g body weight of rats).
Each group rats were administered according to the following manner. These rats were normally fed every day during the administration.
On the 1st day (including this day), except the control group, for rats of other groups (the model group and the peptide A high, medium and low dose groups), 0.5 ml of Freund's complete adjuvant was subcutaneously injected into plantar skin of right rear foot of every rat. Then, they were subcutaneously injected with 0.05 ml of Freund's complete adjuvant for one time every other day, a total of 15 times.
From the 2nd day (including this day), the rats of peptide A high, medium and low dose groups each were administered with corresponding the dose of peptide A. Then, they were subcutaneously injected with the dose the amount of peptide A for one time every other day, a total of 15 times. At the same time, the rats of the control group and the model group were subcutaneously injected the same amount of physiological saline as that of the peptide A for the high, medium and low dose groups for one time every other day, a total of 15 times.
Measurement for the experimental results was conducted as follows. Firstly, before administration to rats of each group, left rear ankle circumference […] of each rat was measured by a flexible rule as a base value, and then circumference of left rear ankle with inflammation of each rat was measured at the 4th, 8th, 12th, 16th, 20th, 24th, 28th, and 32nd day, respectively. Swelling value obtained by circumference after inflammation minus circumference before inflammation was used to observe changes of primary and secondary inflammation of Freund's complete adjuvant-induced rats.
Secondly, at the 32nd day, rats of each group were killed, and their left rear foot ankle joints ware quickly taken out, fixed in 10% formalin and then embedded in paraffin after decalcification, sectioned and stained with HE. The proliferation of synovial tissue, degeneration of covering epithelial cells (synovial cells), congestion of interstitial substance, inflammatory cell infiltration, damage or fibrosis of arthrodial cartilage, and inflammatory cell infiltration or fibrosis of subcutaneous tissue around the joint, were observed. According to severity of joint lesions, the lesions were scored as “1 score (few or mild lesion)”, “2 scores (moderate or medium lesion)”, “3 scores (large or severe lesion)”, and “4 scores (very severe lesion)”. Very mild lesion was scored as “0.5”, and no lesion tissue was scored as “0”. Accumulate all scores to obtain a total score for one group, and then calculate average score ( X±SD) for each animal in each group. The lower score indicates the milder grade of the lesion. […]

[1] = high dose 174 μg/kg·d s.c., the 4th day
[2] = high dose 174 μg/kg·d s.c., the 8th day
[3] = high dose 174 μg/kg·d s.c., the 12th day
[4] = high dose 174 μg/kg·d s.c., the 16th day
[5] = high dose 174 μg/kg·d s.c., the 20th day
[6] = high dose 174 μg/kg·d s.c., the 24th day
[7] = high dose 174 μg/kg·d s.c., the 28th day
[8] = high dose 174 μg/kg·d s.c., the 32nd day
[9] = low dose 43.5 μg/kg·d s.c., the 4th day
[10] = low dose 43.5 μg/kg·d s.c., the 8th day
[11] = low dose 43.5 μg/kg·d s.c., the 12th day
[12] = low dose 43.5 μg/kg·d s.c., the 16th day
[13] = low dose 43.5 μg/kg·d s.c., the 20th day
[14] = low dose 43.5 μg/kg·d s.c., the 24th day
[15] = low dose 43.5 μg/kg·d s.c., the 28th day
[16] = low dose 43.5 μg/kg·d s.c., the 32nd day
[17] = medium dose 87 μg/kg·d s.c., the 4th day
[18] = medium dose 87 μg/kg·d s.c., the 8th day
[19] = medium dose 87 μg/kg·d s.c., the 12th day
[20] = medium dose 87 μg/kg·d s.c., the 16th day
[21] = medium dose 87 μg/kg·d s.c., the 20th day
[22] = medium dose 87 μg/kg·d s.c., the 24th day
[23] = medium dose 87 μg/kg·d s.c., the 28th day
[24] = medium dose 87 μg/kg·d s.c., the 32nd day

Q: Which “arthritis lesion (histopathology) after administration” value (all dose groups, effect in descending order high, medium, low) does the source give for GQTYTSG [Peptide A] here?
A: Its value is “reduced in different degrees”.

Q: What about the “ankle joint swelling value” [1] of the same substance?
A: Its value is 8.5 ± 1.5 mm.

Q: And the “inhibition rate of ankle joint swelling” value [1]?
A: The value was “(17.5%)”.

Q: What about the “ankle joint swelling value” [2] of the same substance?
A: The value was 10.2 ± 1.7 mm.

Q: What about the “inhibition rate of ankle joint swelling” value [2] of the same substance?
A: Its value is “(28.2%)”.

Q: What about the “ankle joint swelling value” [3] of the same substance?
A: Its value is 10.8 ± 1.5 mm.

Q: What about the “inhibition rate of ankle joint swelling” value [3] of the same substance?
A: Its value is “(31.6%)”.

Q: And the “ankle joint swelling value” [4]?
A: Its value is 11.1 ± 1.6 mm.

Q: And the “inhibition rate of ankle joint swelling” value [4]?
A: Its value is “(39.7%)”.

Q: And the “ankle joint swelling value” [5]?
A: The value was 11.4 ± 1.8 mm.

Q: What about the “inhibition rate of ankle joint swelling” value [5] of the same substance?
A: The value was “(37.4%)”.

Q: And the “ankle joint swelling value” [6]?
A: The value was 10.8 ± 1.7 mm.

Q: And the “inhibition rate of ankle joint swelling” value [6]?
A: The value was “(38.3%)”.

Q: And the “ankle joint swelling value” [7]?
A: Its value is 10.4 ± 1.8 mm.

Q: And the “inhibition rate of ankle joint swelling” value [7]?
A: Its value is “(37.7%)”.

Q: And the “ankle joint swelling value” [8]?
A: Its value is 9.5 ± 1.9 mm.

Q: What about the “inhibition rate of ankle joint swelling” value [8] of the same substance?
A: Its value is “(39.9%)”.

Q: And the “Lesion scoring ( X ± SD), joint lesion severity” value (from here on “Lesion scoring ( X ± SD)”) (high dose group (174 μg/kg·d s.c.))?
A: The value was 3.60 ± 1.26.

Q: And the “inhibition rate to the joint swelling” value (high dose group (174 μg/kg·d))?
A: The value was ~40%.

Q: What about the “joint swelling compared with rats of the model group” value (high, medium and low dose groups, observation) of the same substance?
A: The value was “significantly reduced joint swelling”.

Q: And the skin ulcer symptom (high, medium and low dose groups, part of model rats had skin ulcers on the 24th day)?
A: Its skin ulcer symptom is “did not have skin ulcer symptom”.

Q: What about the “ankle joint swelling value” [9] of the same substance?
A: The value was 9.3 ± 1.4 mm.

Q: And the “inhibition rate of ankle joint swelling” value [9]?
A: Its value is “(9.7%)”.

Q: What about the “ankle joint swelling value” [10] of the same substance?
A: Its value is 13.5 ± 2.1 mm.

Q: What about the “inhibition rate of ankle joint swelling” value [10] of the same substance?
A: The value was “(4.9%)”.

Q: What about the “ankle joint swelling value” [11] of the same substance?
A: The value was 13.9 ± 1.6 mm.

Q: And the “inhibition rate of ankle joint swelling” value [11]?
A: Its value is “(12.0%)”.

Q: And the “ankle joint swelling value” [12]?
A: The value was 14.2 ± 1.7 mm.

Q: And the “inhibition rate of ankle joint swelling” value [12]?
A: Its value is “(22.8%)”.

Q: And the “ankle joint swelling value” [13]?
A: Its value is 14.6 ± 2.3 mm.

Q: And the “inhibition rate of ankle joint swelling” value [13]?
A: Its value is “(19.8%)”.

Q: And the “ankle joint swelling value” [14]?
A: Its value is 14.2 ± 1.4 mm.

Q: And the “inhibition rate of ankle joint swelling” value [14]?
A: The value was “(18.8%)”.

Q: And the “ankle joint swelling value” [15]?
A: Its value is 14.0 ± 1.8 mm.

Q: What about the “inhibition rate of ankle joint swelling” value [15] of the same substance?
A: Its value is “(16.2%)”.

Q: And the “ankle joint swelling value” [16]?
A: The value was 13.8 ± 1.5 mm.

Q: And the “inhibition rate of ankle joint swelling” value [16]?
A: Its value is “(12.6%)”.

Q: And the “Lesion scoring ( X ± SD)” value (low dose group (43.5 μg/kg·d s.c.))?
A: The value was 4.10 ± 0.99.

Q: And the “ankle joint swelling value” [17]?
A: The value was 8.9 ± 1.6 mm.

Q: And the “inhibition rate of ankle joint swelling” value [17]?
A: The value was “(13.6%)”.

Q: What about the “ankle joint swelling value” [18] of the same substance?
A: The value was 11.9 ± 1.8 mm.

Q: And the “inhibition rate of ankle joint swelling” value [18]?
A: Its value is “(16.2%)”.

Q: And the “ankle joint swelling value” [19]?
A: The value was 12.1 ± 2.3 mm.

Q: What about the “inhibition rate of ankle joint swelling” value [19] of the same substance?
A: The value was “(23.4%)”.

Q: And the “ankle joint swelling value” [20]?
A: The value was 12.9 ± 1.8 mm.

Q: And the “inhibition rate of ankle joint swelling” value [20]?
A: Its value is “(29.9%)”.

Q: What about the “ankle joint swelling value” [21] of the same substance?
A: Its value is 13.2 ± 1.4 mm.

Q: And the “inhibition rate of ankle joint swelling” value [21]?
A: The value was “(27.5%)”.

Q: What about the “ankle joint swelling value” [22] of the same substance?
A: The value was 13.0 ± 1.8 mm.

Q: What about the “inhibition rate of ankle joint swelling” value [22] of the same substance?
A: The value was “(25.7%)”.

Q: And the “ankle joint swelling value” [23]?
A: Its value is 12.8 ± 1.6 mm.

Q: And the “inhibition rate of ankle joint swelling” value [23]?
A: The value was “(23.4%)”.

Q: And the “ankle joint swelling value” [24]?
A: The value was 12.5 ± 1.8 mm.

Q: What about the “inhibition rate of ankle joint swelling” value [24] of the same substance?
A: Its value is “(20.9%)”.

Q: What about the “Lesion scoring ( X ± SD)” value (medium dose group (87 μg/kg·d s.c.)) of the same substance?
A: The value was 4.00 ± 0.67.
